This is an account of results in ChEMBL document CHEMBL1201862, “PubChem BioAssay data set” (2004).

Chain of Cytochrome P450 2C9 (P11712 whole entry): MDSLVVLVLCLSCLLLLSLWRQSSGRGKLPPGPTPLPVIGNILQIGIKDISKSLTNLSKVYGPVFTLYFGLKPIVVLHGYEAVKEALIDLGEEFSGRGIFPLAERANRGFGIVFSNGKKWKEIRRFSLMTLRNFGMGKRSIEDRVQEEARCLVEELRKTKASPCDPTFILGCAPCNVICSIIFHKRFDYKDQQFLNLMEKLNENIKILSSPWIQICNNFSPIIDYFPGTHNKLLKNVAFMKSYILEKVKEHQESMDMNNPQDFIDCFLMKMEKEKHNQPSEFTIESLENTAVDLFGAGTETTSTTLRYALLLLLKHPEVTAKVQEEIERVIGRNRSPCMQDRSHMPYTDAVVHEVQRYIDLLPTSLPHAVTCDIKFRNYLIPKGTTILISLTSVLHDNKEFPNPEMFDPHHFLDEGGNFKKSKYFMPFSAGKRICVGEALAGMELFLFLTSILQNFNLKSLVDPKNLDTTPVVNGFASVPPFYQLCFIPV

The target in the first series is Cytochrome P450 2D6 (Homo sapiens, UniProt P10635).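 Also: CYP2D6 member of a cytochrome P450 panel assay.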
Chain of Cytochrome P450 2D6 (P10635 whole entry): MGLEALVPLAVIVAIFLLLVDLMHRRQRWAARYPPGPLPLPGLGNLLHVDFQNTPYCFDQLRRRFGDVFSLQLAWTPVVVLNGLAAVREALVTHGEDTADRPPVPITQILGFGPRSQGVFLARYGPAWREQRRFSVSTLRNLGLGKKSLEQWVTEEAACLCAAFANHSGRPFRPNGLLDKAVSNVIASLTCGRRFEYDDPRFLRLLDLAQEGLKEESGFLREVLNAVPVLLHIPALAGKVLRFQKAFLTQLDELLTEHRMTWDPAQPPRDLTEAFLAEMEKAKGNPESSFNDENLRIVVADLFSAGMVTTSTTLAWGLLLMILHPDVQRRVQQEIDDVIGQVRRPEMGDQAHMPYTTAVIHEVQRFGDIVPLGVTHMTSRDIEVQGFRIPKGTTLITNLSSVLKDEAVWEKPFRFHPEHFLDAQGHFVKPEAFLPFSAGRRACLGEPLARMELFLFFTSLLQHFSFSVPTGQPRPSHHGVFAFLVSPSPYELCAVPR
Conditions: not given
Usually AC50 stands for the concentration at which the activity in the assay is half-maximal. In the case of `CC1(C)CC(=O)C2=C(C1)Oc1nc3ccccc3cc1C2C(C#N)C#N` (stereo not drawn), the AC50 is 0.112 µM (inconclusive).
`COc1ccc(S(=O)(=O)Nc2ccc(F)cc2)c(C)c1C`: the AC50 was 0.447 µM (inconclusive).
As to `O=C(Nc1ccccc1)N1CCC2(CC1)CCN(S(=O)(=O)c1ccccc1)CC2`, the AC50 was 39.8 µM (inconclusive).
For `Cc1nc2sccc2c(=O)n1-c1ccccc1Cl`, the AC50 is 14.1 µM (inconclusive).
In the case of `NC(=O)C1(N2CCCCC2)CCN(C(=O)c2ccc(-n3cnnn3)cc2)CC1`, the AC50 is 1.58 µM (inconclusive).
As for `O/N=C/c1ccccc1OCc1ccc(Cl)cc1`, the AC50 was 22.4 µM (inconclusive).
On the same count and under the same terms, the result for `O=P(O)(CCc1ccccc1)C(O)c1ccccc1` (stereo not drawn) reads 35.5 µM (inconclusive); that for `Cc1ccc2c(c1)C(=O)[C@@]1(O)CCN(c3ccccc3)C1=N2`, 39.8 µM (inconclusive).
Consider `CCOc1ccc(CC(C(N)=O)C(N)=O)cc1CN(C)C`, for which the AC50 is 17.8 µM (inconclusive).
Consider `COc1cc(C(=O)OC(C)C(=O)Nc2ccc3c(c2)OCO3)ccc1OCc1c(C)noc1C` (stereo not drawn), for which the AC50 was 28.2 µM (inconclusive).
With `CN(C)C(=O)c1ccc(-c2cncnc2NCc2cccs2)cc1`, the AC50 was 39.8 µM (inconclusive).
With `CCC(C)(C)NC(=NC#N)Nc1cccnc1`, the AC50 was 39.8 µM (inconclusive).
For `O=S(=O)(c1cnccc1N1CCN(/N=C/c2ccccc2)CC1)N1CCCCC1`, the AC50 was 25.1 µM (inconclusive).

The next series addresses Cytochrome P450 2C9 (Homo sapiens, UniProt P11712).
Conditions: not given
In the case of `CC(c1ccccc1C(O)c1ccccc1)N(C)C` (stereo not drawn), the AC50 is 0.0355 µM (inconclusive).
Take `Cc1nc2cnc(N3CCNCC3)nc2n(CCc2ccccc2)c1=O`: the AC50 was 39.8 µM (inconclusive).
For `COc1ccc2c(c1)-c1c(sn(-c3ccc(OC)c(OC)c3)c1=S)C(C)(C)N2`, the AC50 is 5.01 µM (inconclusive).
For the molecule `COc1cccc(Cn2c(=O)c(-c3cccs3)nc3cnc(N4CCOCC4)nc32)c1`, the AC50 was 25.1 µM (inconclusive).
The same measure, in the same setting: for `CC(C)C(NC(=O)OCc1ccccc1)C(=O)O` (stereo not drawn) the value was 11.2 µM (inconclusive).
Turning to `COc1ccc(NC(=O)CCNS(=O)(=O)c2ccc3c(c2)CCC(=O)N3)cc1`, the AC50 is 4.47 µM (inconclusive).
In the case of `CN(C)C(=O)CN(c1ccc2c(c1)OCO2)S(C)(=O)=O`, the AC50 was 0.178 µM (inconclusive).

In another series the target is Cytochrome P450 2C19 (Homo sapiens, UniProt P33261). The experiment in a line: Cytochrome panel assay with activity outcomes. Panel member name: p450-cyp2c19 Compounds with AC50 equal or less than 10 uM are considered active. In kind it is functional.
Chain of Cytochrome P450 2C19 (P33261 whole entry): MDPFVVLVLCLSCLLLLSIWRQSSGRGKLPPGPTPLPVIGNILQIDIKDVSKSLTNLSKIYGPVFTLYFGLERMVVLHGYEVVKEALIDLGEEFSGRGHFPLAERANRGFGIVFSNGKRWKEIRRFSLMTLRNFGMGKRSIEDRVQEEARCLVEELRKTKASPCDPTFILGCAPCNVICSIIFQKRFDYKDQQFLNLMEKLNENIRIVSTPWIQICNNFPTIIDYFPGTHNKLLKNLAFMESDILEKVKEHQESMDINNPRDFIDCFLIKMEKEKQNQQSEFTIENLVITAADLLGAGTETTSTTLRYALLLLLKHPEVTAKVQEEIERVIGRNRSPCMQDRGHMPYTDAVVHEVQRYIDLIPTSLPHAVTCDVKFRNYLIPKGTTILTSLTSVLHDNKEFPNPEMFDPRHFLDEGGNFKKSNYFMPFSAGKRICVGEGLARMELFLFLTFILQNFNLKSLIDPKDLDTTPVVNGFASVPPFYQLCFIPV
Conditions: not given
Consider `O=C(N/N=C/c1ccco1)c1ccccn1`, for which the AC50 result is given as “inconclusive”.
The same measure, in the same setting: the result for `O=S(=O)(c1ccccc1)N1CCC2(CCCN(Cc3nccs3)C2)CC1` reads “inconclusive”; that for `OC[C@@H]1O[C@@H](O)[C@H](/N=C\c2ccc3c(c2)OCO3)[C@@H](O)[C@@H]1O`, “inconclusive”.

Staying with this series, now noted: read-out: AC50.
For the molecule `COc1ccc(-n2c(=O)c(-c3cccc(F)c3)nc3cncnc32)cc1`, the AC50 was 31.6 µM (inconclusive).
`O/N=C/c1ccccc1OCc1ccc(Cl)cc1`: the AC50 is 2.82 µM (inconclusive).
For `Cc1cc(NCCO)c2ccccc2n1`, the concentration at half-maximal activity (AC50) was 39.8 µM (inconclusive).
On the same count and under the same terms, for `CCOc1ccc(CC(C(N)=O)C(N)=O)cc1CN(C)C` the value was 22.4 µM (inconclusive); for `COc1ccc(COC2OC[C@]3(C)[C@H]4C5=C(CN3C(=O)OC(C)(C)C)[C@H](C)C(CO)C(CO)C5CC[C@@H]24)cc1` (stereo partly drawn), 39.8 µM (inconclusive).
